Tests used:
[1] = tested on: velvetleaf; assay: Test B pre/postemergence velvetleaf; assay type: in vivo, Abutilon theophrasti
Procedure, shortened: (§1)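 Response is a visual 0-to-10 score relative to untreated plants, where 0 means no effect and 10 means complete control, taken twelve to sixteen days after application. Treatments went onto soil at planting and onto foliage of 1- to 4-leaf plants, using a surfactant-containing non-phytotoxic solvent.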

[2] = tested on: blackgrass; assay: Test B pre/postemergence blackgrass; assay type: in vivo, Alopecurus myosuroides
Procedure, shortened: as §1

[3] = tested on: bedstraw; assay: Test B pre/postemergence bedstraw; assay type: in vivo, Galium aparine
Procedure, shortened: as §1

[4] = tested on: corn; assay: Test B pre/postemergence corn; assay type: in vivo, Zea mays
Procedure, shortened: as §1

[5] = tested on: giant foxtail; assay: Test B pre/postemergence giant foxtail; assay type: in vivo, Setaria faberii
Procedure, shortened: as §1

[6] = tested on: wild oat; assay: Test B pre/postemergence wild oat; assay type: in vivo, Avena fatua
Procedure, shortened: as §1

[7] = tested on: cocklebur; assay: Test B pre/postemergence cocklebur; assay type: in vivo, Xanthium strumarium
Procedure, shortened: as §1

[8] = tested on: rape; assay: Test B pre/postemergence rape; assay type: in vivo, Brassica napus
Procedure, shortened: as §1

[9] = tested on: morningglory; assay: Test B pre/postemergence morningglory; assay type: in vivo, Ipomoea hederacea
Procedure, shortened: as §1

[10] = tested on: soybean; assay: Test B pre/postemergence soybean; assay type: in vivo, Glycine max
Procedure, shortened: as §1

[11] = tested on: crabgrass; assay: Test B pre/postemergence crabgrass; assay type: in vivo, Digitaria sanguinalis
Procedure, shortened: as §1

[12] = tested on: surinam grass; assay: Test B pre/postemergence surinam grass; assay type: in vivo, Brachiaria decumbens
Procedure, shortened: as §1

[13] = tested on: wheat; assay: Test B pre/postemergence wheat; assay type: in vivo, Triticum aestivum
Procedure, shortened: as §1

[14] = Postemergence, Rate 125 g/ha, scale of 0 to 10 where 0 is no effect and 10 is complete control
[15] = Preemergence, Rate 62 g/ha, scale 0 to 10 (0 no effect, 10 complete control)
[16] = Preemergence, Rate 125 g/ha, 0 is no effect, 10 is complete control
[17] = Preemergence, Rate 250 g/ha, scale 0 to 10, 0 is no effect, 10 is complete control
[18] = Preemergence, Rate 500 g/ha, scale 0 to 10 (0 no effect, 10 complete control)
[19] = Rate 62 g/ha, Postemergence, scale of 0 to 10 where 0 is no effect and 10 is complete control
[20] = Rate 250 g/ha, Postemergence, scale 0 to 10, 0 is no effect, 10 is complete control
[21] = Rate 500 g/ha, Postemergence, scale 0 to 10

Cc1ccc(N(C(=O)n2oc(=O)n(C(C)C)c2=O)C(C)C)cc1 [Compound 132]
Velvetleaf plant response rating [1, 14]: 2
Velvetleaf plant response rating [1, 15]: 3
Velvetleaf plant response rating (0 to 10 scale) [1, 16]: 4
Velvetleaf plant response rating [1, 17]: 6
Velvetleaf plant response rating [1, 18]: 10
Velvetleaf plant response rating [1, 19]: 2
Plant response rating, Velvetleaf [1, 20]: 3
Velvetleaf plant response rating [1, 21]: 3
Blackgrass plant response rating [2, 14]: 2
Blackgrass plant response rating [2, 15]: 3
Blackgrass plant response rating (0 to 10 scale) [2, 16]: 6
Blackgrass plant response rating [2, 17]: 9
Blackgrass plant response rating [2, 18]: 10
Blackgrass plant response rating [2, 19]: 0
Plant response rating, Blackgrass [2, 20]: 8
Blackgrass plant response rating [2, 21]: 9
Bedstraw plant response rating [3, 14]: 0
Bedstraw plant response rating [3, 15]: 0
Bedstraw plant response rating (0 to 10 scale) [3, 16]: 0
Bedstraw plant response rating [3, 17]: 9
Bedstraw plant response rating [3, 18]: 10
Bedstraw plant response rating [3, 19]: 0
Plant response rating, Bedstraw [3, 20]: 2
Bedstraw plant response rating ([3]; Rate 500 g/ha, Postemergence, scale 0 to 10, 0 no effect, 10 complete control): 7
Corn plant response rating [4, 14]: 0
Corn plant response rating [4, 15]: 0
Corn plant response rating (0 to 10 scale) [4, 16]: 0
Corn plant response rating [4, 17]: 7
Corn plant response rating [4, 18]: 8
Corn plant response rating [4, 19]: 0
Plant response rating, Corn [4, 20]: 4
Corn plant response rating [4, 21]: 6
Giant foxtail plant response rating [5, 14]: 9
Giant foxtail plant response rating [5, 15]: 8
Giant foxtail plant response rating (0 to 10 scale) [5, 16]: 8
Giant foxtail plant response rating [5, 17]: 9
Giant foxtail plant response rating [5, 18]: 10
Giant foxtail plant response rating [5, 19]: 8
Plant response rating, Giant foxtail [5, 20]: 9
Giant foxtail plant response rating [5, 21]: 9
Wild oats plant response rating [6, 14]: 2
Wild oats plant response rating [6, 15]: 3
Wild oats plant response rating (0 to 10 scale) [6, 16]: 5
Wild oats plant response rating [6, 17]: 8
Wild oats plant response rating [6, 18]: 9
Wild oats plant response rating [6, 19]: 0
Plant response rating, Wild oats [6, 20]: 2
Wild oats plant response rating [6, 21]: 3
Cocklebur plant response rating [7, 14]: 0
Cocklebur plant response rating [7, 15]: 0
Cocklebur plant response rating (0 to 10 scale) [7, 16]: 0
Cocklebur plant response rating [7, 18]: 0
Cocklebur plant response rating [7, 19]: 0
Plant response rating, Cocklebur [7, 20]: 0
Cocklebur plant response rating [7, 21]: 0
Rape plant response rating [8, 14]: 0
Rape plant response rating [8, 15]: 0
Rape plant response rating (0 to 10 scale) [8, 16]: 0
Rape plant response rating [8, 17]: 0
Rape plant response rating [8, 18]: 8
Rape plant response rating [8, 19]: 0
Plant response rating, Rape [8, 20]: 0
Rape plant response rating [8, 21]: 0
Morningglory plant response rating [9, 14]: 6
Morningglory plant response rating [9, 15]: 0
Morningglory plant response rating (0 to 10 scale) [9, 16]: 0
Morningglory plant response rating [9, 17]: 0
Morningglory plant response rating [9, 18]: 2
Morningglory plant response rating [9, 19]: 3
Plant response rating, Morningglory [9, 20]: 6
Morningglory plant response rating [9, 21]: 7
Soybean plant response rating [10, 14]: 3
Soybean plant response rating [10, 15]: 0
Soybean plant response rating (0 to 10 scale) [10, 16]: 0
Soybean plant response rating [10, 17]: 2
Soybean plant response rating [10, 18]: 4
Soybean plant response rating [10, 19]: 3
Plant response rating, Soybean [10, 20]: 4
Soybean plant response rating [10, 21]: 6
Crabgrass plant response rating [11, 14]: 7
Crabgrass plant response rating [11, 15]: 7
Crabgrass plant response rating (0 to 10 scale) [11, 16]: 7
Crabgrass plant response rating [11, 17]: 9
Crabgrass plant response rating [11, 18]: 9
Crabgrass plant response rating [11, 19]: 5
Plant response rating, Crabgrass [11, 20]: 8
Crabgrass plant response rating [11, 21]: 9
B. signalgrass plant response rating [12, 14]: 3
B. signalgrass plant response rating [12, 15]: 0
B. signalgrass plant response rating (0 to 10 scale) [12, 16]: 3
B. signalgrass plant response rating [12, 17]: 7
B. signalgrass plant response rating [12, 18]: 9
B. signalgrass plant response rating [12, 19]: 0
Plant response rating, B. signalgrass [12, 20]: 4
B. signalgrass plant response rating ([12]; Rate 500 g/ha, Postemergence, scale of 0 to 10 where 0 is no effect and 10 is complete control): 7
Wheat plant response rating [13, 14]: 2
Wheat plant response rating [13, 15]: 0
Wheat plant response rating (0 to 10 scale) [13, 16]: 0
Wheat plant response rating [13, 17]: 2
Wheat plant response rating [13, 18]: 4
Wheat plant response rating [13, 19]: 0
Plant response rating, Wheat [13, 20]: 2
Wheat plant response rating [13, 21]: 6

Reference: US6737383B1, “Herbicidal oxadiazolidines” (priority 1999, dated 2004)
